Reference: patent US5162339A, “Quinuclidine therapeutic agents” (Pfizer Inc., priority 1990, dated 1992)

Assays:
[1] = system: substance P-induced locomotion; test: suppression of substance P-induced hypermotility (locomotion) in rats; format: in vivo, rat; conditions: 32 mg./kg. dose level, intraperitoneal route
Description: (§1) Such conditions include gastrointestinal disorders such as ulcer and colitis and other like diseases of the gastrointestinal tract, central nervous system disorders such as anxiety and psychosis, inflammatory diseases such as rheumatoid arthritis and inflammatory bowel diseases, respiratory diseases such as asthma, as well as pain in any of the aforesaid conditions, including migraine. […] A. Winter et al., Proceedings of the Society of Experimental Biology and Medicine, Vol. 111, p.
The anti-psychotic activity of the compounds of the present invention as neuroleptic agents for the control of various psychotic disorders is determined primarily by a study of their ability to suppress substance P-induced hypermotility in rats. This study is carried out by first dosing the rats with a control compound or with an appropriate test compound of the present invention, then injecting the rats with substance P by intracerebral administration via canula and thereafter measuring their individual locomotor response to said stimuli.

[2] = system: carrageenin-induced rat foot edema; test: carrageenin-induced rat foot edema test; format: in vivo; conditions: for % Inhibition at 32 mg./kg. (inhibition of edema formation): rats, 32 mg./kg. orally (by gavage), compared to vehicle control
Description: as §1
In this test, anti-inflammatory activity is determined as the percent inhibition of edema formation in the hind par of male albino rats (weighing 150-190 g.) in response to a sub-plantar injection of carrageenin. The carrageenin is injected as a 1% aqueous solution. Edema formation is then assessed by measuring the volume of the injected paw initially as well as three hours after the carrageenin injection. The increase in volume three hours after carrageenin injection constitutes the individual response. Compounds are considered active if the difference in response between the drug-treated animals (six rats/group) and a control group receiving the vehicle alone is significant on comparison with the results afforded by a standard compound like phenylbutazone at 33 mg./kg., via the oral route of administration.
The following cis-[(cyclic)methylamino]-2-benzhydrylquinuclidine final products of Examples 2, 3 and 4, respectively, were tested for anti-inflammatory activity in rats, using the standard rat foot edema test, according to the general procedure described by C. A. Winter et al., as first reported in the Proceedings of the Society for Experimental Biology and Medicine, Vol. 111, p. 544 (1962).

Row | SMILES | inhibition of substance P-induced locomotion [1] [%] | inhibition in swelling ([2]; rat, 100 mg./kg. dose level, oral route) [%] | % Inhibition at 32 mg./kg. (inhibition of edema formation) [2] [%]
1 | Clc1ccccc1CN[C@H]1C2CCN(CC2)[C@H]1C(c1ccccc1)c1ccccc1 (relative stereo) [Example 2, cis-3-[(2-chlorophenyl)methylamino]-2-benzhydrylquinuclidine] | 50 | 50 | 29
2 | FC(F)(F)c1ccccc1CN[C@H]1C2CCN(CC2)[C@H]1C(c1ccccc1)c1ccccc1 (relative stereo) [Example 3, cis-3-[(2-trifluorophenyl)methylamino]-2-benzhydrylquinuclidine] |  |  | 50
3 | COc1ccccc1CN[C@H]1C2CCN(CC2)[C@H]1C(c1ccccc1)c1ccccc1 (relative stereo) [Example 4, cis-3-[(2-methoxyphenyl)methylamino]-2-benzhydrylquinuclidine] |  |  | 38
